These results are taken from ChEMBL document CHEMBL3217683, “Matched triplicate design sets in the optimisation of glucokinase activators maximising medicinal chemistry information content” (Medchemcomm, 2013).

Data set [1] is described as follows: Lipophilicity, log D of the compound. It counts as physicochemical. As to conditions: octanol/water.
A short description of data set [2]: Clearance in rat. The data set is classed as ADME, organism-based. As to conditions: in vivo.
The target of data set [3] is Voltage-gated inwardly rectifying potassium channel KCNH2 (Homo sapiens, UniProt Q12809). Nature of the data set: Inhibition of human ERG.
Sequence of Voltage-gated inwardly rectifying potassium channel KCNH2 (Q12809 whole entry): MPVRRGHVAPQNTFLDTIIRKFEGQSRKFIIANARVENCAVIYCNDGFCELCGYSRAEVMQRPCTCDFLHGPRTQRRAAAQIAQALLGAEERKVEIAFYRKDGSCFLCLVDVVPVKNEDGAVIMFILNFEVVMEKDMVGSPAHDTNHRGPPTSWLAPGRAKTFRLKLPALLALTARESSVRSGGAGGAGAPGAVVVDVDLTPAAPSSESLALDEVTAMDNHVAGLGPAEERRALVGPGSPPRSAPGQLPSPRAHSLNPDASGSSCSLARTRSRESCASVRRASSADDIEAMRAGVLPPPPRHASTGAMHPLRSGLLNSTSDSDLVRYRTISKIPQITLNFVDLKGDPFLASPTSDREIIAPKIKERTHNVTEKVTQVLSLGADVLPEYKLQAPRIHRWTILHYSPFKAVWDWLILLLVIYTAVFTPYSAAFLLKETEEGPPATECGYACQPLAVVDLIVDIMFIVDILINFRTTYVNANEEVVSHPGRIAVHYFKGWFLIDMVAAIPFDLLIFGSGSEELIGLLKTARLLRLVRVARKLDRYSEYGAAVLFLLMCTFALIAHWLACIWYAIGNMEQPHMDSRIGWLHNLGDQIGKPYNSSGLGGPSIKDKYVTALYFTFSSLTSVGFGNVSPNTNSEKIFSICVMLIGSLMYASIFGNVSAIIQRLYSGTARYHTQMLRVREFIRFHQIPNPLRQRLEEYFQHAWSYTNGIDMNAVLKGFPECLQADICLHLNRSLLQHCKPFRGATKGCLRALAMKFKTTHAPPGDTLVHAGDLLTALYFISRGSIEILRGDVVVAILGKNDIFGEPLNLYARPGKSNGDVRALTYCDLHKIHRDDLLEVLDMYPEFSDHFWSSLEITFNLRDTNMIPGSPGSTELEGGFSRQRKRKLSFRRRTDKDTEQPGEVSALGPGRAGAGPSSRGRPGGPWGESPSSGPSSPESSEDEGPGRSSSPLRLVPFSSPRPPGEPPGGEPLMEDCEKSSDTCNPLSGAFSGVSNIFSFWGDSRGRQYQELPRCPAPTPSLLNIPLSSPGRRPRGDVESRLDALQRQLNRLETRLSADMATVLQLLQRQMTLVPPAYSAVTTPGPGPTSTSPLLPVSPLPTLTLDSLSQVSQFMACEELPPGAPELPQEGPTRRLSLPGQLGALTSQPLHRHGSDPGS
The next data set is filed under the species Rattus norvegicus. Nature of the data set: Unbound clearance in rat. It counts as ADME, organism-based. As to conditions: in vivo.
The next data set has as its target T1, Hexokinase-4 (Homo sapiens, UniProt P35557).
T1 sequence (P35557 whole entry): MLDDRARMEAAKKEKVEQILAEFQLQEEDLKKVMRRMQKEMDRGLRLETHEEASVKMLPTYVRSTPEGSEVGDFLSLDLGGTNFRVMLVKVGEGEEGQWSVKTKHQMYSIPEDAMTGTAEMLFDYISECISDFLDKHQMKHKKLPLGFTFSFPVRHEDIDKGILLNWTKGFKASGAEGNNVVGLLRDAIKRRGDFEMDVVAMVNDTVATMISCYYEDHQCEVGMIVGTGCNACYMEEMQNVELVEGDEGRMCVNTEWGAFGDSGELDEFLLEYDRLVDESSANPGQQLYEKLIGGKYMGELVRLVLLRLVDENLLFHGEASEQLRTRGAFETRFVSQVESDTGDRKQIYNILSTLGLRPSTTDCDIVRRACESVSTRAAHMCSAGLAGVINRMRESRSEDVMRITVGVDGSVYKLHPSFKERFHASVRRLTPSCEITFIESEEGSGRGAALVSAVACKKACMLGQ
Nature of the data set: Activity at glucokinase (unknown origin).

Molecules are shown by their SMILES.

In turn, `CCOC[C@H](Oc1ncnc2c1cnn2-c1ncccc1Cl)C(=O)Nc1ccc(F)cn1` had a logD in data set [1] of 2.4.
For the compound `CCOC[C@H](Oc1ncnc2c1cnn2-c1ncccc1Cl)C(=O)Nc1cnc(C)cn1`, the clearance in data set [2] turned out to be 3 L/h/kg. In addition, the log distribution coefficient (logD) in data set [1] amounted to 1.8. The compound further showed a half-maximal inhibitory concentration (IC50) in data set [3] of 15.8 µM. The same compound gave a CL free in the data set listed under Rattus norvegicus of 19.2 L/h/kg. Besides, on Hexokinase-4, it took 1.26 µM to reach a half-maximal effect (EC50).
With `CC(C)OC[C@H](Oc1ncnc2c1cnn2-c1ncccc1Cl)C(=O)Nc1ccc(Cl)cn1`, in data set [1], the pH-dependent lipophilicity (logD) was found to be 3.5. The compound also gave a concentration for half-maximal inhibition (IC50) in data set [3] of 63.1 µM. The EC50 on Hexokinase-4 was 0.398 µM.
For the compound `Cc1ccc(NC(=O)[C@H](COC2CCC2)Oc2ncnc3c2cnn3-c2ncccc2Cl)nc1`, the clearance in data set [2] was 8.16 L/h/kg. This compound also returned a log distribution coefficient (logD) in data set [1] of 3.2. Besides, half-maximal inhibition in data set [3] (IC50) was put at 39.8 µM. In the data set listed under Rattus norvegicus, this compound yielded a CL free of 90 L/h/kg. For the same compound, on Hexokinase-4, the 50% effective concentration (EC50) was 0.158 µM.
For `CC(C)OC[C@H](Oc1ncnc2c1cnn2-c1ccccc1Cl)C(=O)Nc1ccc(Cl)cn1`, the EC50 on Hexokinase-4 was 0.126 µM.
As to `CCOC[C@H](Oc1ncnc2c1cnn2-c1ncccc1Cl)C(=O)Nc1ccc(C)cn1`, the clearance in data set [2] amounted to 3.12 L/h/kg. In data set [1], this compound returned a logD of 2.6. Besides, the CL free in the data set filed under Rattus norvegicus came out at 20.4 L/h/kg. This compound also showed an EC50 at Hexokinase-4 of 0.251 µM.
As for `Cc1ccc(NC(=O)[C@H](COC(C)C)Oc2ncnc3c2cnn3-c2ccccc2Cl)nc1`, the clearance in data set [2] was 4.26 L/h/kg. Also, the pH-dependent lipophilicity (logD) in data set [1] amounted to 3.9. Besides, the IC50 in data set [3] is 31.6 µM. Moreover, the CL free in the data set listed under Rattus norvegicus came out at 84 L/h/kg. Further, the EC50 at Hexokinase-4 was 0.126 µM.
On to `COC[C@H](Oc1ncnc2c1cnn2-c1ncccc1Cl)C(=O)Nc1cnc(C)cn1`, for which, in data set [2], the clearance amounted to 0.24 L/h/kg. In data set [1], this compound yielded a logD of 1.4. The concentration for half-maximal inhibition (IC50) in data set [3] is over 79.4 µM. The response at Hexokinase-4 was half-maximal at 5.01 µM (EC50).
`COC[C@H](Oc1ncnc2c1cnn2-c1ccccc1Cl)C(=O)Nc1ccc(C)cn1` yielded a clearance in data set [2] of 0.228 L/h/kg. This compound also had a pH-dependent lipophilicity (logD) in data set [1] of 3.4. Further, the IC50 in data set [3] is 50.1 µM. The same compound showed an EC50 at Hexokinase-4 of 0.316 µM.
In data set [2], `Cc1cnc(NC(=O)[C@H](COC2CCC2)Oc2ncnc3c2cnn3-c2ncccc2Cl)cn1` gave a clearance of 1.32 L/h/kg. In addition, the log distribution coefficient (logD) in data set [1] was 2.6. In the data set listed under Rattus norvegicus, this compound returned a CL free of 15.6 L/h/kg. At Hexokinase-4, this compound gave an EC50 of 0.158 µM.
Turning to `COCC[C@H](Oc1ncnc2c1cnn2-c1ccccc1Cl)C(=O)Nc1ccc(C)cn1`, the clearance in data set [2] is 2.22 L/h/kg. Also, the pH-dependent lipophilicity (logD) in data set [1] worked out at 3.6. Besides, inhibition in data set [3] was half-maximal at 20 µM (IC50). In the data set filed under Rattus norvegicus, the CL free came to 30 L/h/kg.
`CC(C)OC[C@H](Oc1ncnc2c1cnn2-c1ccccc1Cl)C(=O)Nc1ccc(F)cn1`: the pH-dependent lipophilicity (logD) in data set [1] came to 3.9. The concentration giving a half-maximal response (EC50) on Hexokinase-4 is 0.2 µM.
In turn, `CC(C)OC[C@H](Oc1ncnc2c1cnn2-c1ncccc1Cl)C(=O)Nc1ccccn1` had a logD in data set [1] of 2.5. The compound also had a concentration for half-maximal inhibition (IC50) in data set [3] of over 100 µM. Further, a half-maximal response on Hexokinase-4 (EC50) required 0.501 µM.
The corresponding values for `CC(C)OC[C@H](Oc1ncnc2c1cnn2-c1ccccc1Cl)C(=O)Nc1ccccn1` are 3.5, 63.1 µM and 0.126 µM.
On to `Cc1cnc(NC(=O)[C@H](COC2CCC2)Oc2ncnc3c2cnn3-c2ccccc2Cl)cn1`, for which the clearance in data set [2] came out at 2.52 L/h/kg. In addition, the pH-dependent lipophilicity (logD) in data set [1] amounted to 3.6. The IC50 in data set [3] is 12.6 µM. This compound also displayed a CL free in the data set filed under Rattus norvegicus of 39 L/h/kg. The concentration for a half-maximal effect (EC50) at Hexokinase-4 is 0.0794 µM.
Compound `CC(C)OC[C@H](Oc1ncnc2c1cnn2-c1ncccc1Cl)C(=O)Nc1ccc(F)cn1` showed a logD in data set [1] of 2.7. This compound also gave a half-inhibitory concentration (IC50) in data set [3] of 79.4 µM.
As for `CC(C)OC[C@H](Oc1ncnc2c1cnn2-c1ccccc1Cl)C(=O)Nc1ccc(C#N)cn1`, the logD in data set [1] turned out to be 3.5. The compound further had an EC50 on Hexokinase-4 of 0.316 µM.
`COC[C@H](Oc1ncnc2c1cnn2-c1ncccc1Cl)C(=O)Nc1ccc(C)cn1` came in with a clearance in data set [2] of 0.558 L/h/kg. This compound gave a log distribution coefficient (logD) in data set [1] of 2.3. In addition, the IC50 in data set [3] was over 100 µM. Besides, a half-maximal effect at Hexokinase-4 (EC50) was put at 1.58 µM.
Regarding `Cc1cnc(NC(=O)[C@H](COC(C)C)Oc2ncnc3c2cnn3-c2ccccc2Cl)cn1`, the clearance in data set [2] was found to be 3.66 L/h/kg. The compound also returned a log distribution coefficient (logD) in data set [1] of 2.1. For the same compound, the IC50 in data set [3] is over 100 µM. For the same compound, the CL free in the data set listed under Rattus norvegicus was determined as 7.8 L/h/kg. This compound also had a half-maximal effective concentration (EC50) at Hexokinase-4 of 0.316 µM.
In turn, `CCOC[C@H](Oc1ncnc2c1cnn2-c1ccccc1Cl)C(=O)Nc1cnc(C)cn1` returned a clearance in data set [2] of 2.64 L/h/kg. This compound registered a logD in data set [1] of 2.8. Also, in the data set filed under Rattus norvegicus, the CL free amounted to 9 L/h/kg.
As for `CCOC[C@H](Oc1ncnc2c1cnn2-c1ncccc1Cl)C(=O)Nc1ccccn1`, the logD in data set [1] is 2.1. In data set [3], this compound gave an IC50 of over 100 µM. Also, the half-maximal effective concentration (EC50) on Hexokinase-4 is 0.501 µM.
The corresponding values for `CCOC[C@H](Oc1ncnc2c1cnn2-c1ncccc1Cl)C(=O)Nc1ccc(C#N)cn1` are 2, 20 µM and 0.631 µM.
As to `COCC[C@H](Oc1ncnc2c1cnn2-c1ncccc1Cl)C(=O)Nc1ccc(C)cn1`, the clearance in data set [2] turned out to be 3.24 L/h/kg. This compound registered a log distribution coefficient (logD) in data set [1] of 2.3. This compound had a CL free in the data set filed under Rattus norvegicus of 16.8 L/h/kg. It took 0.158 µM to reach a half-maximal effect on Hexokinase-4 (EC50).
`Cc1ccc(NC(=O)[C@H](COC(C)C)Oc2ncnc3c2cnn3-c2ncccc2Cl)nc1` gave a clearance in data set [2] of 3.72 L/h/kg. The same compound gave a logD in data set [1] of 2.9. In data set [3], this compound showed an IC50 of over 100 µM. Also, the CL free in the data set filed under Rattus norvegicus worked out at 23.4 L/h/kg.
Turning to `CC(C)OC[C@H](Oc1ncnc2c1cnn2-c1ncccc1Cl)C(=O)Nc1ccc(C#N)cn1`, the logD in data set [1] was determined as 2.5. In addition, half-maximal inhibition in data set [3] (IC50) was put at 50.1 µM. The compound also showed an EC50 at Hexokinase-4 of 0.631 µM.
On to `CCOC[C@H](Oc1ncnc2c1cnn2-c1ncccc1Cl)C(=O)Nc1ccc(Cl)cn1`, for which the log distribution coefficient (logD) in data set [1] was 3. In data set [3], this compound gave a half-inhibitory concentration (IC50) of 10 µM. On Hexokinase-4, this compound had an EC50 of 0.316 µM.

In general, logD refers to the decadic logarithm of the distribution of all forms, ionised or not, between an organic phase and buffer at a given pH. Lower therefore signals a more hydrophilic compound. In general, clearance refers to the volume of plasma or blood freed of the substance per unit of time. Broadly, the IC50 is the concentration needed to halve the response being measured. Read a low IC50 as greater potency. Usually EC50 stands for the concentration that produces a half-maximal response. Read a high EC50 as weaker potency.
